The values below come from patent US12127557B2.

One test deals with Fusarium graminearum. In kind it is cell-based. Conditions: no enzyme, 5 days.
Another test deals with Pythium ultimum. In kind it is cell-based. Conditions: no enzyme, 2 days.

Like-named read-outs stand apart in the source and are kept apart here.

In the case of mancozeb, the “Reduction in F. graminearum growth (−) enzyme” value is recorded as 6% cd with Fusarium graminearum (mancozeb 0.5 mg/l), 1% d with Fusarium graminearum (mancozeb 2 mg/l), 17% cd in the test on Fusarium graminearum (mancozeb 5 mg/l) and 26% bcd in the test on Fusarium graminearum (mancozeb 10 mg/l). For the same substance, the “Reduction in P. ultimum growth (−) enzyme” value in the test on Pythium ultimum (mancozeb 0.5 mg/l) is 2% f; with Pythium ultimum (mancozeb 2 mg/l), 10% e; in the test with Pythium ultimum (mancozeb 5 mg/l), 16% e; in the test with Pythium ultimum (mancozeb 10 mg/l) it was 23% d.
